“And” between values parts separate entries of the source, which are not always exact repeats. Equal values may be shown once.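 Dose response: 5 concentrations. Exposure: 48 h. Format: 96-well plates. Endpoint: linear interpolation; highest concentration if not reached. At the GI50, growth is halved. TGI is the concentration that stops growth completely.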
Legend:
Assay in all cases: DTP human tumour cell line panel, 48 h
[1] = system: OVCAR-4 ovarian
[2] = system: IGROV1 ovarian
[3] = system: NCI-H23 lung
[4] = system: SW-620 colon
[5] = system: HCC-2998 colon
[6] = system: SR leukemia
[7] = system: UACC-257 melanoma
[8] = system: HL-60(TB) leukemia
[9] = system: K-562 leukemia
[10] = system: KM12 colon

SMILES	TGI [1] [µM]	TGI [2] [µM]	TGI [3] [µM]	TGI [4] [µM]	TGI [5]	TGI [6] [µM]	TGI [7] [µM]	TGI [8] [µM]	TGI [9] [µM]	TGI [10] [µM]	GI50 [1] [µM]
c1csc(C(NC2=NCCO2)C2CC2)c1 (stereo unspecified)	> 100	> 100	> 100	> 100	> 100 µM	> 100					
O=C([O-])C1([n+]2c(-c3ccccc3)cc(-c3ccccc3)cc2-c2ccccc2)CC1	> 100	> 100	> 100	> 100	> 100 µM	> 100	> 100	68.4	> 100		
CC(N)=O.[Cl][Pt][Cl].[NH-]c1ccn(C2OC(CO)C(O)C2O)c(=O)n1 (stereo unspecified)	> 100	> 100	> 100	> 100		> 100	> 100		> 100	> 100	
O=S(=O)(c1ccc2ccccc2c1)N1CCN(S(=O)(=O)c2ccc3ccccc3c2)CC1	> 100	> 100	> 100	> 100	> 100 µM	> 100	> 100	> 100	> 100	> 100	
Clc1cccc(C2SCc3nc4ccccc4n32)c1 (stereo unspecified)	> 100	70	51.4	> 100		56.3		31.6	> 100	50.5	
CO/C(=N\N=C(/c1ccccc1)C(F)(F)F)c1ccncc1	> 100	> 100	> 100			> 100		> 100	> 100	> 100	
Clc1ccc(-c2nnc(-c3nsc4ccccc34)o2)cc1	34.5	> 100	74.1	> 100	93.7 µM		> 100			> 100	
N/C(=N\N=C/c1cc([N+](=O)[O-])cc([N+](=O)[O-])c1O)NO	> 100	> 100	> 100	> 100	> 100 µM		> 100	> 55	> 91.2	> 100	
CC(=O)Nc1cc(/C=C\C(=O)N2CC(CCl)c3c2cc(N)c2ccccc32)n(C)n1 (stereo unspecified)		> 100	0.0273	> 100	0.0733 µM and 0.0826 µM		0.0394	0.0126	0.0203		0.0216
Cc1cc(C)c(S(=O)(=O)N(CCCN)OCCCN)c(C)c1	> 100	> 100	> 100	> 100	> 100 µM	> 100	> 100		> 100	> 100	
Fc1ccc(C(OCCN2CC3CC2CN3)c2ccc(F)cc2)cc1 (stereo unspecified)	> 100	> 100	> 100	> 100	30.4 µM	73	36.6	> 100	> 100	> 100	

From PubChem BioAssay (NCI)
